Laboratory results from patent US12479843B2, “Spiro ring-containing quinazoline compounds” (WIGEN BIOMEDICINE TECHNOLOGY (SHANGHAI) CO., LTD., priority 2019, dated 2025).
Like-named read-outs stand apart in the source and are kept apart here.

Legend:
pERK level in H358 cells = test: pERK and ERK protein content assay in H358 cells (ELISA); assay type: cell-based; settings: Homo sapiens, NCI-H358, compound 1 μM, 24 h, pERK/ERK ratio compared with DMSO group, read-out: Inhibition rate (%) of pERK level
How it was run: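 Percent inhibition of pERK relative to DMSO, from the ELISA pERK/ERK ratio in lysed H358 cells. Compound applied at 1 μM for 24 h after one day of growth.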

H358 cells = test: Antiproliferative activity against H358 cells (Cell Titer Glow, ultra-low attachment plate); assay type: cell-based; settings: Homo sapiens, NCI-H358, 72 h, three days after addition of compound
Method: 2500 H358 cells were seeded in a 96-well ultra-low attachment plate (corning, 7007). After one day of growth, a serially diluted compound (a maximum concentration of 5 μM, 5-fold dilution, a total of five doses) was added. Three days after the addition of the compound, Cell Titer Glow (Promega, G9681) was added to evaluate pellet growth, and the IC50 value was calculated.

[1] = Pharmacokinetic evaluation in mice; assay type: in vivo, male ICR mice; settings: for Cmax: read-out: Cmax; for Tmax: read-out: Tmax
Method: The compounds were administered by intravenous injection at a dose of 2 mg/kg and oral gavage at a dose of 10 mg/kg (0.5% CMC-Na suspension). 15 male ICR mice were selected for each group, and each mouse was subjected to blood collection at 3 discrete time points, with 3 mice per time point. The time points of sampling were as follows: before the administration, and at 5 min, 15 min, 30 min, 1 h, 3 h, 5 h, 8 h, 12 h and 24 h after the administration. 80 μL of blood was collected from the eye sockets or the hearts of the mice at each of the time points after the administration. All whole blood samples were collected in tubes containing EDTA K2 and centrifuged (1500-1600 rmp) at 4° C. for 10 min to isolate plasma, which was then stored in a refrigerator at −90 to −60° C. for sample analysis. The compound concentration in the plasma was determined by liquid chromatography-tandem mass spectrometry, and the corresponding pharmacokinetic parameters were obtained according to a plasma concentration-time curve.

[2] = system: Human pancreatic cancer Mia PaCa-2 cells; test: Antitumor activity on graft tumors of human pancreatic cancer Mia PaCa-2 in nude mice; assay type: in vivo; settings: Mia PaCa-2 graft tumors in nude mice, 10 mg/kg intragastric, qd*21
Method: Human pancreatic cancer Mia PaCa-2 cells were cultured conventionally in 1640 medium containing 10% fetal bovine serum in a 37° C./5% CO2 incubator. After passage, the cells were collected when they reached the desired amount. 1×10^7 Mia PaCa-2 cells were injected into the left dorsal side of each nude mouse, and the animals were randomly grouped for administration after tumors grew to 150 mm3. The groups are as follows: 1) a solvent control group of 8 mice; and 2) compound 1 group, compound 2 group, compound 5 group, compound 31 group, compound 131 group, compound 142 group, compound 171 group, compound B group and compound C group, with 8 mice per group. Mice in the solvent control group were subjected to intragastric administration of 0.5% CMC-Na once daily; mice in compound 1 group, compound 2 group, compound 5 group, compound 31 group, compound 131 group, compound 142 group, compound 171 group, compound B group and compound C group were subjected to intragastric administration of a suspension of a compound in 0.5% CMC-Na once daily. On Tuesday and Thursday each week, tumor volumes and body weight of the mice were measured, and the nude mice were sacrificed on day 21 of administration.

[3] = 96-well ultra-low attachment plate, Cell Titer Glow
[4] = male, ICR, mouse, plasma, iv, 2 mg/kg
[5] = male, ICR, mouse, plasma, po, 10 mg/kg, 0.5% CMC-Na suspension

| Structure (SMILES) | inhibition at 1 µM (pERK level in H358 cells) | IC50 (H358 cells; [3]) | also measured |
| --- | --- | --- | --- |
| C=CC(=O)N1CC2(CCN(c3nc(OC4CCN(CCOC)CC4)nc4c(OCC(F)(F)F)c(-c5c(C)ccc6[nH]ncc56)c(C5CC5)cc34)CC2)C1 [B, reference compound] | > 90% | < 300 nM | IC50 (H358 cells): 4.6 nM; AUC(0-t) [1, 4]: 7820 ng·h/mL; clearance [1, 4]: 4.2 mL/min/kg; half-life [1, 4]: 4.47 h; Cmax [1, 4]: 2880 ng/mL; Tmax [1, 4]: 0.083 h; Vd ([1]; male, ICR, mouse, plasma, iv, 2 mg/kg, read-out: Vss): 1.01 L/kg; AUC(0-t) [1, 5]: 10300 ng·h/mL; half-life [1, 5]: 3.74 h; Cmax [1, 5]: 1300 ng/mL; Tmax [1, 5]: 2 h; F ([1]; po 10 mg/kg vs iv 2 mg/kg): 26.5%; Anti-tumor effect (regression) [2]: 25% regression |
| C=C(F)C(=O)N1CC2(CCN(c3nc(OC4CCN(CCOC)CC4)nc4c(OCC)c(-c5c(C)ccc6[nH]ncc56)c(C5CC5)cc34)CC2)C1 [Compound 2] | > 90% | < 300 nM | Anti-tumor effect (regression) [2]: 23% regression |
| C=Cc1cc2c(N3CCC4(CC3)CN(C(=O)C(=C)F)C4)nc(OC3CCN(CCOC)CC3)nc2c(OCC(F)(F)F)c1-c1c(C)ccc2[nH]ncc12 [Compound 5] | > 90% | < 300 nM | Anti-tumor effect (regression) [2]: 30% regression |
| C=CC(=O)N1CC2(CCN(c3nc(OC4CCS(=O)(=O)CC4C)nc4c(OCC(F)(F)F)c(-c5c(C)ccc6[nH]ncc56)c(C5CC5)cc34)CC2)C1 (centres unmarked) [Compound 316] | > 90% | < 300 nM |  |
| C=CC(=O)N1CC2(CCN(c3nc(OC4C(C)CS(=O)(=O)CC4C)nc4c(OCC(F)(F)F)c(-c5c(C)ccc6[nH]ncc56)c(C5CC5)cc34)CC2)C1 (centres unmarked) [Compound 317] | > 90% | < 300 nM |  |
| C=CC(=O)N1CC2(CCN(c3nc(O[C@@H]4CCS(=O)(=O)C[C@H]4N(C)C)nc4c(OCC(F)(F)F)c(-c5c(C)ccc6[nH]ncc56)c(C5CC5)cc34)CC2)C1 [Compound 318] | > 90% | < 300 nM |  |
| C=CC(=O)N1CC2(CCN(c3nc(O[C@H]4CCS(=O)(=O)C[C@@H]4N(C)C)nc4c(OCC(F)(F)F)c(-c5c(C)ccc6[nH]ncc56)c(C5CC5)cc34)CC2)C1 [Compound 319] | > 90% | < 300 nM |  |
| C=CC(=O)N1CC2(CCN(c3nc(N4CC(N5CCC5)C4)nc4c(OCC(F)(F)F)c(-c5c(C)ccc6[nH]ncc56)c(C(=C)C)cc34)CC2)C1 [Compound 320] | > 90% | < 300 nM |  |
| C=CC(=O)N1CC2(CCN(c3nc(N4CC(N5CCCC5)C4)nc4c(OCC(F)(F)F)c(-c5c(C)ccc6[nH]ncc56)c(C(=C)C)cc34)CC2)C1 [Compound 321] | > 90% | < 300 nM |  |
| C=CC(=O)N1CC2(CCN(c3nc(N4CC(N5CCC5)C4)nc4c(OCC(F)(F)F)c(-c5c(C)ccc6[nH]ncc56)c(C5(C)CC5)cc34)CC2)C1 [Compound 322] | > 90% | < 300 nM |  |
| C=CC(=O)N1CC2(CCN(c3nc(N4CC(N5CCCC5)C4)nc4c(OCC(F)(F)F)c(-c5c(C)ccc6[nH]ncc56)c(C5(C)CC5)cc34)CC2)C1 [Compound 323] | > 90% | < 300 nM |  |
| C=CC(=O)N1CC2(CCN(c3nc(N4CC(N5CCC(C)C5)C4)nc4c(OCC(F)(F)F)c(-c5c(C)c(C)cc6[nH]ncc56)c(C5CC5)cc34)CC2)C1 (centres unmarked) [Compound 324] | > 90% | < 300 nM |  |
| C=CC(=O)N1CC2(CCN(c3nc(N4CC(N5CC[C@@H](C)C5)C4)nc4c(OCC(F)(F)F)c(-c5c(C)c(C)cc6[nH]ncc56)c(C5CC5)cc34)CC2)C1 [Compound 325] | > 90% | < 300 nM |  |
| C=CC(=O)N1CC2(CCN(c3nc(N4CC(N5C6CCC5CC6)C4)nc4c(OCC(F)(F)F)c(-c5c(C)c(C)cc6[nH]ncc56)c(C5CC5)cc34)CC2)C1 [Compound 326] | > 90% | < 300 nM |  |
| C=CC(=O)N1CC2(CCN(c3nc(N4CC(N5CC[C@H](C)C5)C4)nc4c(OCC(F)(F)F)c(-c5c(C)c(F)cc6[nH]ncc56)c(C5CC5)cc34)CC2)C1 [Compound 327] | > 90% | < 300 nM |  |
| C=CC(=O)N1CC2(CCN(c3nc(N4CC(N5CC[C@@H](C)C5)C4)nc4c(OCC(F)(F)F)c(-c5c(C)c(F)cc6[nH]ncc56)c(C5CC5)cc34)CC2)C1 [Compound 328] | > 90% | < 300 nM |  |
| C=CC(=O)N1CC2(CCN(c3nc(N4CC(N5C6CCC5CC6)C4)nc4c(OCC(F)(F)F)c(-c5c(C)c(F)cc6[nH]ncc56)c(C5CC5)cc34)CC2)C1 [Compound 329] | > 90% | < 300 nM |  |
| C=CC(=O)N1CC2(CCN(c3nc(N4CC(N5CC[C@H](C)C5)C4)nc4c(OCC)c(-c5c(C)ccc6[nH]ncc56)c(C5CC5)cc34)CC2)C1 [Compound 330] | > 90% | < 300 nM |  |
| C=CC(=O)N1CC2(CCN(c3nc(N4CC(N5CC[C@@H](C)C5)C4)nc4c(OCC)c(-c5c(C)ccc6[nH]ncc56)c(C5CC5)cc34)CC2)C1 [Compound 331] | > 90% | < 300 nM |  |
| C=CC(=O)N1CC2(CCN(c3nc(N4CC(N5C6CCC5CC6)C4)nc4c(OCC)c(-c5c(C)ccc6[nH]ncc56)c(C5CC5)cc34)CC2)C1 [Compound 332] | > 90% | < 300 nM |  |
| C=CC(=O)N1CC2(CCN(c3nc(N4CC(N5CC[C@H](C)C5)C4)nc4c(OCC(F)F)c(-c5c(C)ccc6[nH]ncc56)c(C5CC5)cc34)CC2)C1 [Compound 333] | > 90% | < 300 nM |  |
| C=CC(=O)N1CC2(CCN(c3nc(N4CC(N5CC[C@@H](C)C5)C4)nc4c(OCC(F)F)c(-c5c(C)ccc6[nH]ncc56)c(C5CC5)cc34)CC2)C1 [Compound 334] | > 90% | < 300 nM |  |
| C=CC(=O)N1CC2(CCN(c3nc(N4CC(N5C6CCC5CC6)C4)nc4c(OCC(F)F)c(-c5c(C)ccc6[nH]ncc56)c(C5CC5)cc34)CC2)C1 [Compound 335] | > 90% | < 300 nM |  |
| C=CC(=O)N1CC2(CCN(c3nc(N4CC(N5CCC5)C4)nc4c(OCC(F)(F)F)c(-c5c(C)ccc6[nH]ncc56)c(C=C)cc34)CC2)C1 [Compound 336] | > 90% | < 300 nM |  |
| C=CC(=O)N1CC2(CCN(c3nc(N4CC(N5CCCC5)C4)nc4c(OCC(F)(F)F)c(-c5c(C)ccc6[nH]ncc56)c(C=C)cc34)CC2)C1 [Compound 337] | > 90% | < 300 nM |  |
| C=CC(=O)N1CC2(CCN(c3nc(N4CC5(CCN(CCOC)CC5)C4)nc4c(OCC(F)(F)F)c(-c5c(C)ccc6[nH]ncc56)c(C=C)cc34)CC2)C1 [Compound 338] | > 90% | < 300 nM |  |
| C=CC(=O)N1CC2(CCN(c3nc(N4CC(N5CC[C@H](C)C5)C4)nc4c(OCC(F)(F)F)c(-c5c(C)ccc6[nH]ncc56)c(C=C)cc34)CC2)C1 [Compound 339] | > 90% | < 300 nM |  |
| C=CC(=O)N1CC2(CCN(c3nc(N4CC(N5C6CCC5CC6)C4)nc4c(OCC(F)(F)F)c(-c5c(C)ccc6[nH]ncc56)c(C=C)cc34)CC2)C1 [Compound 341] | > 90% | < 300 nM |  |
